Eight compounds from US10206893B2, “Immunoregulatory agents” (Flexus Biosciences, Inc., priority 2014, dated 2019) can be followed below.

pIC50: −log10 of the molar value.

The target of this assay is T1, human IDO1 (Homo sapiens, UniProt P14902).
T1 construct: expressed in transfected cells
T1 sequence (P14902 whole entry): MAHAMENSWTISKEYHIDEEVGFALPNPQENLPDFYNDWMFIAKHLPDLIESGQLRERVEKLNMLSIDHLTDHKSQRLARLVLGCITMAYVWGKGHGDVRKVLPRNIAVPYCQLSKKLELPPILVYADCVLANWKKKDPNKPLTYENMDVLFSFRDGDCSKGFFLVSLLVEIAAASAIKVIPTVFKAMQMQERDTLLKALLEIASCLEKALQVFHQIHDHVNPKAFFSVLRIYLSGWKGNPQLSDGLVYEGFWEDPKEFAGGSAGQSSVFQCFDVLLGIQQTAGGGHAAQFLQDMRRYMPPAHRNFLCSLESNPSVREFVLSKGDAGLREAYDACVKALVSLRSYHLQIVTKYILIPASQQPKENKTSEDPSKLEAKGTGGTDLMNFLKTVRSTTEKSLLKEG
The assay is described as follows: IDO inhibition assay in HEK293 cells stably expressing human IDO1 (kynurenine, Ehrlich reagent). The note with it: 20 hours incubation, read-out: HEK Human IDO-1 Bio Activity. Type of assay: cell-based. The method, then:
They were cultured in medium (DMEM with 10% FBS) containing 1 mg/ml G418 for two weeks.
The human IDO1/HEK293 cells were seeded at 10,000 cells per 50 μL per well with RPMI/phenol red free media contains 10% FBS in a 384-well black wall clear bottom tissue culture plate (Matrix Technologies LLC) 100 nL of certain concentration of compound was then added to each well using ECHO liquid handling systems. The cells were incubated for 20 hours in 37° C. incubator with 5% CO2.
The compound treatments were stopped by adding trichloroacetic acid (Sigma-Aldrich) to a final concentration at 0.2%. The cell plate was further incubated at 50° C. for 30 minute. The equal volume supernatant (20 μL) and 0.2% (w/v) Ehrlich reagent (4-dimethylaminobenzaldehyde, Sigma-Aldrich) in glacial acetic acid were mixed in a new clear bottom 384-well plate. This plate was then incubated at room temperature for 30 minute. The absorbance at 490 nm was measured on Envision plate reader.
With `CC(NC(=O)c1ccc(Cl)cc1)C1CCC(c2ccncc2F)CC1` (single isomer, unassigned) [Example 161b, 4-chloro-N-(1-(4-(3-fluoropyridin-4-yl)cyclohexyl)ethyl)benzamide], the pIC50 is above 7.30. In the case of `CC(NC(=O)c1ccc(Cl)cc1)C1CCC(c2ccncc2F)CC1` (single isomer, unassigned) [Example 161c, 4-chloro-N-(1-(4-(3-fluoropyridin-4-yl)cyclohexyl)ethyl)benzamide] it was above 6.60; in that of `N#Cc1ccc(NC(=O)N[C@H]2CC[C@H](c3ccnc4ccc(F)cc43)CC2)cc1` [Example 121], above 6.60; in that of `CCC(NC(=O)c1ccc(-c2ccccc2)cc1)[C@H]1CC[C@@H](c2cnc3ccccc3c2)CC1` (some centres unmarked) [Example 200], above 6.60. To `CC[C@@H](NC(=O)c1ccc(-c2ccccc2)cc1)[C@H]1CC[C@H](c2cnc3ccccc3c2)CC1` [Example 201, N—((R)-1-((1r,4R)-4-(quinolin-3-yl)cyclohexyl)propyl)-[1,1′-biphenyl]-4-carboxamide] belongs above 6.60; to `CC[C@H](NC(=O)c1ccc(-c2ccccc2)cc1)[C@H]1CC[C@H](c2cnc3ccccc3c2)CC1` [Example 202, N—((S)-1-((1r,4S)-4-(quinolin-3-yl)cyclohexyl)propyl)-[1,1′-biphenyl]-4-carboxamide], above 7.30; to `COc1ccc(-c2ccc(C(=O)N[C@H](C)[C@H]3CC[C@@H](c4ccnc5ccc(F)cc54)CC3)cc2)nc1` [Example 239, N-((R)-1-((1s,4S)-4-(6-fluoroquinolin-4-yl)cyclohexyl)ethyl)-4-(5-methoxypyridin-2-yl)benzamide], above 7.30. “(R)-1-(cis-4-(6-fluoroquinolin-4- yl)cyclohexyl)-N-methylethanamine [Example 194]”: the pIC50 was above 7.30.
